Where two headings read alike, the source gives them in different places.
Assays:
H3N2 Influenza A Virus = assay type: cell-based
TNFα = experiment: Expression of TNFα in cells (general statement, no data shown); assay type: cell-based; settings: no values
Source text: A person skilled in the art would be able to identify TNFα-downregulating compounds of the invention by contacting one or more cells with a compound of the invention and assaying for the presence of one TNFα and comparing the levels of TNFα in the one or more cells with that of controls. Such methods are known in the art and are described in the examples herein below.

MDCK cells [1] = experiment: Cytotoxicity determination: cell viability of uninfected cells, CellTiter-Glo luminescent cell viability assay; settings: 48 h; for Viability %: MDCK cells
MDCK cells [2] = settings: dog, 48 h
CK-2 = settings: 30 µM; cited from earlier work
[3] = tested on: murine retinal ganglion cells; settings: cited from earlier work
PKC and CK-I = settings: 100 µM; cited from earlier work

| Compound | Viability % (MDCK cells [1]; 25 µM) | Viability % (MDCK cells [1]; 250 µM) | other results |
| --- | --- | --- | --- |
| CON(C1OC(CO)C(O)C(O)C1O)C1CCC2(C)C(CCC3(C)C2C(=O)C=C2C4CC(C)(C(=O)O)CCC4(C)CCC23C)C1(C)C [Compound 1, (3S,18R,20S)-11-Oxo-3-[(beta-D-glucopyranosyl)methoxamino]-olean-12-en-29-oic acid] | – | – | cytopathic effect associated with virus replication in cell culture (H3N2 Influenza A Virus; general statement, no values): reduce the cytopathic effect; expression of TNFα (TNFα): inhibit the expression of TNFα |
| COC(=O)[C@H]1O[C@@H](SCCN[C@H]2CC[C@]3(C)[C@H]4C(=O)C=C5[C@@H]6C[C@@](C)(C(=O)O)CC[C@]6(C)CC[C@@]5(C)[C@]4(C)CC[C@H]3C2(C)C)[C@H](O)[C@@H](O)[C@@H]1O [Compound 2, (3S,18R,20S)-3-[2-S-(Methyl-1-thio-beta-D-glucopyranosyluronate)-ethyl-amino]-11-oxo-olean-12-en-29-oic acid] | 114.6% | 101.2% | – |
| CC1(C)[C@@H](NCCS[C@@H]2O[C@H](C(=O)O)[C@@H](O)[C@H](O)[C@H]2O)CC[C@]2(C)[C@H]3C(=O)C=C4[C@@H]5C[C@@](C)(C(=O)O)CC[C@]5(C)CC[C@@]4(C)[C@]3(C)CC[C@@H]12 [Compound 3, (3S,18R,20S)-3-[2-(β-D-glucopyranuronosylthio)-ethyl-amino]-11-oxo-olean-12-en-29-oic acid] | 103.5% | 105.5% | – |
| COC(=O)[C@H]1O[C@@H](SCCN(C(C)=O)[C@H]2CC[C@]3(C)[C@H]4C(=O)C=C5[C@@H]6C[C@@](C)(C(=O)O)CC[C@]6(C)CC[C@@]5(C)[C@]4(C)CC[C@H]3C2(C)C)[C@H](O)[C@@H](O)[C@@H]1O [Compound 4, (3S,18R,20S)-3-{N-Acetyl-N-[2-S-(methyl-1-thio-beta-D-glucopyranosyluronate)-ethyl]-amino}-11-oxo-olean-12-en-29-oic acid] | 104.4% | 99.4% | – |
| CC(=O)N(CCS[C@@H]1O[C@H](C(=O)O)[C@@H](O)[C@H](O)[C@H]1O)[C@H]1CC[C@]2(C)[C@H]3C(=O)C=C4[C@@H]5C[C@@](C)(C(=O)O)CC[C@]5(C)CC[C@@]4(C)[C@]3(C)CC[C@H]2C1(C)C [Compound 5, (3S,18R,20S)-3-{N-Acetyl-N-[2-(beta-D-glucopyranuronosylthio)-ethyl]-amino}-11-oxo-olean-12-en-29-oic acid] | 106.6% | 93.5% | – |
| COC(=O)CCC(=O)N(CCS[C@@H]1O[C@H](C(=O)OC)[C@@H](O)[C@H](O)[C@H]1O)[C@H]1CC[C@]2(C)[C@H]3C(=O)C=C4[C@@H]5C[C@@](C)(C(=O)O)CC[C@]5(C)CC[C@@]4(C)[C@]3(C)CC[C@H]2C1(C)C [Compound 6, (3S,18R,20S)-3-{N-(4-Methoxy-1,4-dioxobutyl)-N-[2-S-(methyl-1-thio-beta-D-glucopyranosyluronate)-ethyl]-amino}-11-oxo-olean-12-en-29-oic acid] | 107.3% | 106.3% | – |
| CC1(C)[C@@H](O)CC[C@]2(C)[C@H]3C(=O)C=C4[C@@H]5C[C@@](C)(C(=O)O)CC[C@]5(C)CC[C@@]4(C)[C@]3(C)CC[C@@H]12 [Glycyrrhetinic acid] | – | – | Viability % (MDCK cells [2]; 25 µM): 0.2%; Viability % (MDCK cells [2]; 250 µM): 0.0%; phosphorylation of C3α by CK-2 (CK-2): completely inhibited; postsynaptic light response [3]: 30 % of control |
| CC1(C)[C@@H](O[C@H]2O[C@H](C(=O)O)[C@@H](O)[C@H](O)[C@H]2O[C@@H]2O[C@H](C(=O)O)[C@@H](O)[C@H](O)[C@H]2O)CC[C@]2(C)[C@H]3C(=O)C=C4[C@@H]5C[C@@](C)(C(=O)O)CC[C@]5(C)CC[C@@]4(C)[C@]3(C)CC[C@@H]12 [Glycyrrhizin, glycyrrhizin, reference compound] | 100.9% | 105.3% | phosphorylation of HMGB1/2 by PKC and CK-I (PKC and CK-I): completely inhibits; reduction of the CPE (cytopathic effect) (H3N2 Influenza A Virus): 57%; Viability % (MDCK cells [1]; 1500 µM): 101.7%; cell viability of uninfected treated cells versus uninfected untreated cells (MDCK cells [1]; 1.5 mM, uninfected MDCK cells): not significantly different |
